{"source": "patent US11591297B2", "about": "“Compound having PD-L1 expression-suppressing action” (TOHOKU UNIVERSITY, priority 2019, dated 2023)", "tested_on": "human IL-2 promoter", "assay": "IL-2luc activity (luciferase under control of IL-2 promoter) of Jurkat cells co-cultured with IFN-γ-treated A549 cells", "type": "cell-based", "details": "control (DMSO) IFN-γ(−) defined as 100%, control IFN-γ(+) 54.5", "protocol": "The pIL-2luc obtained by the insertion of a human IL-2 promoter sequence (−945 to 53) into the multiple cloning site of pGL-3 vector basic (Promega) was preliminarily transfected into Jurkat cells. PMA and PHA-L were added into the Jurkat cells and the cells were pre-cultured. Simultaneously, IFN-γ was added into A549 cells and the cells were pre-cultured. The supernatants of each culture liquid at the time of the pre-culture of each cell were removed, the culture liquids were co-cultured in new medium. The luciferase activity of the co-cultured Jurkat cells was measured. Each test compound was added into the A549 cell culture liquid during the pre-culture.\nA549 cells were suspended in DMEM medium at a concentration of 3×10^5 cells/mL to prepare a suspension, and the suspension was dispensed into a T25 flask in an amount of 5 mL and cultured\nSeparately, 5 μg of pIL-2luc DNA and 15 μL of TransIT-Jurkat reagent (Takara Bio: Cat #V2124) were added into 500 μL of serum-free medium, and the medium was allowed to stand at room temperature for 15 minutes. […]\nLAS in Luciferase Assay System was dissolved in LAB to prepare a luciferase reagent. 10 μL of the sample was mixed with 50 μL of the luciferase reagent, and the chemiluminescence (Relative Luminescence Intensity: RLU) of the sample was measured using GloMax20/20 (Promega). […]", "data": [{"smiles": "O=C(Nc1ccc(Oc2ccc(S(F)(F)(F)(F)F)cc2)cc1)C1CCCN(C(=O)c2ccc([N+](=O)[O-])cc2)C1", "note": "(centres unmarked) [Example 5, 1-(4-Nitrobenzoyl)-N-(4-(4-(pentafluorosulfanyl)phenoxy)phenyl)piperidine-3-carboxamide]", "values": [{"measurement": "activity at 0.5 µM", "setting": "0.5 μM", "result": 63.5, "unit": "%"}, {"measurement": "activity at 1 µM", "setting": "1 μM", "result": 85.9, "unit": "%"}]}]}
